Test results reported in ChEMBL document CHEMBL3352578 (J Med Chem, 2014).
Active and inactive are the calls of the source. The calls are words filed in the database; no cut-off is given here.

How the values were obtained:
[1] = AUC (0 to infinity) in Sprague-Dawley rat at 10 mg/kg, po; format: ADME, organism-based; design: time infinity, dose 10 mg/kg, route oral; details: plasma
Rattus norvegicus [2] = experiment: Positive allosteric modulation of mGlu2 receptor in Sprague-Dawley rat sleep-wake EEG paradigm model assessed as effect on active wake stage at 3 mg/kg, po after 4 hrs by electroencephalogram analysis; format: functional, organism-based; design: dose 3 mg/kg
[3] = molecular target: Metabotropic glutamate receptor 4 (Homo sapiens) (UniProt Q14833); experiment: Binding affinity to human mGlu4 receptor expressed in […] L929 cells assessed as calcium mobilization by [35S]GTPgamma binding assay; format: functional, cell-based
Metabotropic glutamate receptor 4 (Homo sapiens), sequence (Q14833 whole entry): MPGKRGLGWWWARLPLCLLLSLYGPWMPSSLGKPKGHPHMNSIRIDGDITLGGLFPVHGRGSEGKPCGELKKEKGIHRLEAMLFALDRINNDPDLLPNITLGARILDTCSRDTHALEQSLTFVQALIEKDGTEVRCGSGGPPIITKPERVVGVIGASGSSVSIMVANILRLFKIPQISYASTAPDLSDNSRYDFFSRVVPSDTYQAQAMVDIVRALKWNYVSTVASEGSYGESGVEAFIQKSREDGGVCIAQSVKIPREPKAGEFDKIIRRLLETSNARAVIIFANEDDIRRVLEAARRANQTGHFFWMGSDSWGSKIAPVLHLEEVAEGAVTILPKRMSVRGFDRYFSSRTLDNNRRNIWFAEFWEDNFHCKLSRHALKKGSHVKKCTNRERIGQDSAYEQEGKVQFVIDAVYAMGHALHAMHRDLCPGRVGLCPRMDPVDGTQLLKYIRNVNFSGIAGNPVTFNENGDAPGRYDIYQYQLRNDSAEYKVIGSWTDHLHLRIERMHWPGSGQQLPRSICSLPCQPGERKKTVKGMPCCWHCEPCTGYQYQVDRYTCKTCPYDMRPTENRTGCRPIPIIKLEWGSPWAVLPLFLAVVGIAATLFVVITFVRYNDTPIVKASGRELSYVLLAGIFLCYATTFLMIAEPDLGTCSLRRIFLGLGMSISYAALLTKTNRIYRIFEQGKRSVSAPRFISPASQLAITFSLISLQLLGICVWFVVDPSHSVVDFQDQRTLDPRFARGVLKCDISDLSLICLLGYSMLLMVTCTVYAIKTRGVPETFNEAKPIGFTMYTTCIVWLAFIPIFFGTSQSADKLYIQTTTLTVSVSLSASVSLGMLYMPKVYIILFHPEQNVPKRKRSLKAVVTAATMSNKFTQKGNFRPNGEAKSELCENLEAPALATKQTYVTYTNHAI

[4] = Cmax in dog at 2.5 mg/kg, po; format: ADME, organism-based, Canis lupus familiaris; design: dose 2.5 mg/kg, route oral; details: in vivo
Rattus norvegicus [5] = experiment: Positive allosteric modulation of mGlu2 receptor in Sprague-Dawley rat sleep-wake EEG paradigm model assessed as effect on intermediate state at 3 mg/kg, po after 4 hrs by electroencephalogram analysis; format: functional, organism-based; design: dose 3 mg/kg
Rattus norvegicus [6] = experiment: Positive allosteric modulation of mGlu2 receptor in po dosed Sprague-Dawley rat assessed effect on sleep-wake EEG paradigm after 20 hrs by electroencephalogram analysis; format: functional
[7] = Lipophilicity, log P of the compound at pH 6.8; format: physicochemical; details: buffer
Rattus norvegicus [8] = experiment: Positive allosteric modulation of mGlu2 receptor in Sprague-Dawley rat sleep-wake EEG paradigm model assessed as reduction in REM sleep at 3 mg/kg, po after 4 hrs by electroencephalogram analysis; format: functional, organism-based; design: dose 3 mg/kg
[9] = Metabolic stability in rat liver microsomes assessed as compound metabolized at 5 uM after 15 mins by MS/MS analysis in presence of NADPH; format: ADME; details: read-out: Drug metabolism
[10] = Oral bioavailability in Sprague-Dawley rat at 10 mg/kg; format: ADME, organism-based; details: in vivo
[11] = Cmax in Sprague-Dawley rat at 10 mg/kg, po; format: ADME, organism-based; design: dose 10 mg/kg, route oral; details: in vivo
[12] = Apparent permeability from apical to basolateral side in human Caco2 cells; format: ADME, cell-based; details: Caco-2
[13] = Elimination half life in dog at 1 mg/kg, iv; format: ADME, organism-based, Canis lupus familiaris; design: dose 1 mg/kg, route intravenous; details: in vivo, read-out: beta t1/2 (converted)
[14] = Metabolic stability in human liver microsomes assessed as compound metabolized at 5 uM after 15 mins by MS/MS analysis in presence of NADPH; format: ADME; details: read-out: Drug metabolism
[15] = Ratio of drug level in brain to plasma in Swiss mouse at 10 mg/kg, sc after 1 hr; format: ADME, organism-based; design: dose 10 mg/kg, route subcutaneous; details: brain and plasma, read-out: BPR
[16] = molecular target: Metabotropic glutamate receptor 6 (Rattus norvegicus) (UniProt P35349); experiment: Binding affinity to rat mGlu6 receptor expressed in CHO cells assessed as calcium mobilization by [35S]GTPgamma binding assay; format: functional, cell-based
Metabotropic glutamate receptor 6 (Rattus norvegicus), sequence (P35349 whole entry): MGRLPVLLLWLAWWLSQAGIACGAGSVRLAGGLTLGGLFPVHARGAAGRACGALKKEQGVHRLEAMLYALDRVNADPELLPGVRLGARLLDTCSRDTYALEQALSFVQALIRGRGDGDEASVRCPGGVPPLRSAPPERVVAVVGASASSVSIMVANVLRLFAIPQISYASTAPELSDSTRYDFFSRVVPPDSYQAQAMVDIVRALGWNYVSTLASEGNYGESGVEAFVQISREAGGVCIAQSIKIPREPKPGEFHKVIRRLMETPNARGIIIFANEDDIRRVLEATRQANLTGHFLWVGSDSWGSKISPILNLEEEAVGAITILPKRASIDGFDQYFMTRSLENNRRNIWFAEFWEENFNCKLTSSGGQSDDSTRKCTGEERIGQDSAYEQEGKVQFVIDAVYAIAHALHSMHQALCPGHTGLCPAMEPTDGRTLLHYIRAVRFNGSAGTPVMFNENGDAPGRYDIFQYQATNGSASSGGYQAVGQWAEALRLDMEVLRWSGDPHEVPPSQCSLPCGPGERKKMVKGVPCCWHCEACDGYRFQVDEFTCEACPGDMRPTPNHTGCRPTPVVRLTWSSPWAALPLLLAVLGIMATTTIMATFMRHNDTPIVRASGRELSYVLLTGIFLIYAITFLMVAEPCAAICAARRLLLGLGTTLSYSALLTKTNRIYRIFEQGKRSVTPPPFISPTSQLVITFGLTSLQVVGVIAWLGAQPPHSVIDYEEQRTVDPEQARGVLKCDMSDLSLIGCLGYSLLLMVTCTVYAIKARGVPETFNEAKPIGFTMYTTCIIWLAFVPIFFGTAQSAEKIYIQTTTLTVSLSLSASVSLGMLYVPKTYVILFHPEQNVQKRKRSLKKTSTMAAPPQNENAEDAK

Rattus norvegicus [17] = experiment: Positive allosteric modulation of mGlu2 receptor in Sprague-Dawley rat sleep-wake EEG paradigm model assessed as effect on light sleep stage at 3 mg/kg, po after 4 hrs by electroencephalogram analysis; format: functional, organism-based; design: dose 3 mg/kg
[18] = Apparent permeability from basolateral to apical side in human Caco2 cells; format: ADME, cell-based; details: Caco-2
[19] = Tmax in Sprague-Dawley rat at 2.5 mg/kg, iv; format: ADME, organism-based; design: dose 2.5 mg/kg, route intravenous; details: in vivo
[20] = Oral bioavailability in dog at 2.5 mg/kg; format: ADME, organism-based, Canis lupus familiaris; details: in vivo
[21] = Volume of distribution at steady state in dog at 1 mg/kg, iv; format: ADME, organism-based, Canis lupus familiaris; design: dose 1 mg/kg, route intravenous; details: in vivo, read-out: Vdss
[22] = AUC (0 to infinity) in dog at 2.5 mg/kg, po; format: ADME, organism-based, Canis lupus familiaris; design: time infinity, dose 2.5 mg/kg, route oral; details: plasma
Rattus norvegicus [23] = experiment: Positive allosteric modulation of mGlu2 receptor in Sprague-Dawley rat sleep-wake EEG paradigm model assessed as effect on passive wake stage at 3 mg/kg, po after 4 hrs by electroencephalogram analysis; format: functional, organism-based; design: dose 3 mg/kg
[24] = Clearance in Sprague-Dawley rat at 2.5 mg/kg, iv; format: ADME, organism-based; design: dose 2.5 mg/kg, route intravenous; details: in vivo
Rattus norvegicus [25] = experiment: Positive allosteric modulation of mGlu2 receptor in Sprague-Dawley rat sleep-wake EEG paradigm model assessed as effect on deep sleep stage at 3 mg/kg, po after 4 hrs by electroencephalogram analysis; format: functional, organism-based; design: dose 3 mg/kg
[26] = Tmax in dog at 1 mg/kg, iv; format: ADME, organism-based, Canis lupus familiaris; design: dose 1 mg/kg, route intravenous; details: in vivo
[27] = molecular target: Metabotropic glutamate receptor 1 (Homo sapiens) (UniProt Q13255); experiment: Binding affinity to human mGlu1 receptor expressed in HEK293 cells assessed as calcium mobilization by [35S]GTPgamma binding assay; format: functional, cell-based
Metabotropic glutamate receptor 1 (Homo sapiens), sequence (Q13255 19-1194 limits assumed): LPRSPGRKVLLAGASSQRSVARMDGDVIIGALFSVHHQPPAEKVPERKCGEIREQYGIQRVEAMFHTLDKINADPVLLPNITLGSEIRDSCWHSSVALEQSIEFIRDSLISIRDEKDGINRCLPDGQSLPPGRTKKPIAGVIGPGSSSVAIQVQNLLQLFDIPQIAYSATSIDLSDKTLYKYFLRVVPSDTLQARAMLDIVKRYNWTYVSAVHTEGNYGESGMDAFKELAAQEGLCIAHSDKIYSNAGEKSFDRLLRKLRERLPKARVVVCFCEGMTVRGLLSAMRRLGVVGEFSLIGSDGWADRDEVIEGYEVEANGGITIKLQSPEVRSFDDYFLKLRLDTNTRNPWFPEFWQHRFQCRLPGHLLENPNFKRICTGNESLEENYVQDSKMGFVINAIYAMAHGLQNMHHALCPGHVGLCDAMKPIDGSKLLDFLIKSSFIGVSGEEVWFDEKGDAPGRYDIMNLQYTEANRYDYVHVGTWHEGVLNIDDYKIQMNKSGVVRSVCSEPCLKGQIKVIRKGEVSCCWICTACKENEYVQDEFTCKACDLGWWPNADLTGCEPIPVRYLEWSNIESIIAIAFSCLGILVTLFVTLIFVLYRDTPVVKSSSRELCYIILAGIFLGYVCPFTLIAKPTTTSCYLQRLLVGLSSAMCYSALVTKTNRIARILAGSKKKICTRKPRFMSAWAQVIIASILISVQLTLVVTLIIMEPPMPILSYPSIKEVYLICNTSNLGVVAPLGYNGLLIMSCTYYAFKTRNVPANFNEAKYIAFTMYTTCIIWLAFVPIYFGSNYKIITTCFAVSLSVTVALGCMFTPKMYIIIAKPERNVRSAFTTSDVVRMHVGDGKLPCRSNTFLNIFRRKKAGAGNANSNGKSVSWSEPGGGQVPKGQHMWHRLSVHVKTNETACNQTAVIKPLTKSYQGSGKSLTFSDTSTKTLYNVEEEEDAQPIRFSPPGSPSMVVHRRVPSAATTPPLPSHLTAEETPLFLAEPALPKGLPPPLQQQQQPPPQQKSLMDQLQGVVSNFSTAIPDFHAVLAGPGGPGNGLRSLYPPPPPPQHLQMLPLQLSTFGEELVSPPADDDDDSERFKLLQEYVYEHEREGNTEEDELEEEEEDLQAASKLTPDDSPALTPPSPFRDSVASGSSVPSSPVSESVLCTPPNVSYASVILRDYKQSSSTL

[28] = Elimination half life in Sprague-Dawley rat at 2.5 mg/kg, iv; format: ADME, organism-based; design: dose 2.5 mg/kg, route intravenous; details: in vivo, read-out: beta t1/2 (converted)
[29] = molecular target: Metabotropic glutamate receptor 5 (Homo sapiens) (UniProt P41594); experiment: Binding affinity to human mGlu5 receptor expressed in HEK293 cells assessed as calcium mobilization by [35S]GTPgamma binding assay; format: functional, cell-based
Metabotropic glutamate receptor 5 (Homo sapiens), sequence (P41594 21-1212 limits assumed): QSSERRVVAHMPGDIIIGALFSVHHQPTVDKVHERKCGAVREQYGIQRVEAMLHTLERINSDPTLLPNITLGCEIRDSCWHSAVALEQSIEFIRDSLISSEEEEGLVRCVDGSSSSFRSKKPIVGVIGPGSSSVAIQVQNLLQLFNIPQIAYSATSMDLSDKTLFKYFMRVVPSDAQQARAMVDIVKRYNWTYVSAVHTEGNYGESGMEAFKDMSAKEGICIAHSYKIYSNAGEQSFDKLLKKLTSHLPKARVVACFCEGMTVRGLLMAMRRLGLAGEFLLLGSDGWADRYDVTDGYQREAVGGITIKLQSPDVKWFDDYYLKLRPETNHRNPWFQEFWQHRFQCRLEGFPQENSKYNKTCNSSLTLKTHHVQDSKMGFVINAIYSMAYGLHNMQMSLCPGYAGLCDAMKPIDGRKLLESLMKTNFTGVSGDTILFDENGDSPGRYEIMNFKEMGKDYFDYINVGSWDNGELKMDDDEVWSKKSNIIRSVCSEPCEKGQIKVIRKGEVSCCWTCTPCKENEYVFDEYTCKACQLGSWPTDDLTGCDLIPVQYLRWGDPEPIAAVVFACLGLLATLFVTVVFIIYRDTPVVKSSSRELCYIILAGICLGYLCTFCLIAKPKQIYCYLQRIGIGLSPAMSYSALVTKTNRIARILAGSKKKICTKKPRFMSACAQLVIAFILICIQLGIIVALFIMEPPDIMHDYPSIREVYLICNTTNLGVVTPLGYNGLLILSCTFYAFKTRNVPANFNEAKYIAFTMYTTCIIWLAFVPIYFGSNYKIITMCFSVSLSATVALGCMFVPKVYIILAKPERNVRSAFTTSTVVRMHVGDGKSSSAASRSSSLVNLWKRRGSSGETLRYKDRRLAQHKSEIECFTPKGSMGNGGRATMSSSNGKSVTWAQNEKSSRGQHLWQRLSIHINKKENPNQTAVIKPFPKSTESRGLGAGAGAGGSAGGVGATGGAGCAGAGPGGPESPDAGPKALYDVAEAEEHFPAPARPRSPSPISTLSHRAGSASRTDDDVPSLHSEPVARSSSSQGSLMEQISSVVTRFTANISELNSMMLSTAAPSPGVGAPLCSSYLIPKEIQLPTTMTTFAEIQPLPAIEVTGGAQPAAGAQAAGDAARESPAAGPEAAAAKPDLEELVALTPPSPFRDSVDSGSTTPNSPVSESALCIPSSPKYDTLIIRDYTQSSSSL

[30] = Volume of distribution at steady state in Sprague-Dawley rat at 2.5 mg/kg, iv; format: ADME, organism-based; design: dose 2.5 mg/kg, route intravenous; details: in vivo, read-out: Vdss
Rattus norvegicus [31] = experiment: Positive allosteric modulation of mGlu2 receptor in po dosed Sprague-Dawley rat assessed free plasma drug level causing effect on sleep-wake EEG paradigm after 20 hrs by electroencephalogram analysis; format: functional
[32] = Clearance in dog at 1 mg/kg, iv; format: ADME, organism-based, Canis lupus familiaris; design: dose 1 mg/kg, route intravenous; details: in vivo
[33] = molecular target: Metabotropic glutamate receptor 3 (Homo sapiens) (UniProt Q14832); experiment: Binding affinity to human mGlu3 receptor expressed in HEK293 cells assessed as calcium mobilization by [35S]GTPgamma binding assay; format: functional, cell-based
Metabotropic glutamate receptor 3 (Homo sapiens), sequence (Q14832 23-879 limits assumed): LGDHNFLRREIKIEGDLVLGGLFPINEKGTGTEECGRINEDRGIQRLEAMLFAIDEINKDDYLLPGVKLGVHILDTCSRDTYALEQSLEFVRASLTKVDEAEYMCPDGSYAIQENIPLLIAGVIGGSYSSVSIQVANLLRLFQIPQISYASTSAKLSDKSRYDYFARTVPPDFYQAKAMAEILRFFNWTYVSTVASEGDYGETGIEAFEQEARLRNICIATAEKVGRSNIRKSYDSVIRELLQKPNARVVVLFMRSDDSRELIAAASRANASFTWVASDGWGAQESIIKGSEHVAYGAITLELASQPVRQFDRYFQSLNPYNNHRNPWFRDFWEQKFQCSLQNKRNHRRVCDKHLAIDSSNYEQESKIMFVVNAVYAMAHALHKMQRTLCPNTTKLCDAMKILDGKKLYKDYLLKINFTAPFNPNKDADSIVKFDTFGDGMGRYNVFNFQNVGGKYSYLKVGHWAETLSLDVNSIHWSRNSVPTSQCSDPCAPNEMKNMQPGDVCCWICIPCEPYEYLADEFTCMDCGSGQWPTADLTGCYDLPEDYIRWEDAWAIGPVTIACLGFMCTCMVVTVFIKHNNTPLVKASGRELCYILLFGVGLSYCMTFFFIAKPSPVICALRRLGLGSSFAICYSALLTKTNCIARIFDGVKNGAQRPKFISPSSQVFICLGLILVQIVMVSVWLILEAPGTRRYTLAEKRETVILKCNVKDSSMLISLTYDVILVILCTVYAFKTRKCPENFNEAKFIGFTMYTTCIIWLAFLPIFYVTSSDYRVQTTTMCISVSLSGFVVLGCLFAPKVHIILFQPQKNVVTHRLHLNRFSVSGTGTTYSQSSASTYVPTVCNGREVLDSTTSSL

[34] = Dissociation constant, pKa of the compound; format: physicochemical

AUC(0-inf) [1]: 2250 ng·h/mL
Activity [3]: inactive
Cmax [4]: 373 ng/mL
logD [7]: 4.6
metabolised at 0.25 h, 5 µM [9]: 53%
bioavailability [10]: 31%
Cmax [11]: 938 ng/mL
Papp A→B [12]: 12 ×10⁻⁶ cm/s
half-life [13]: 3.7 h
metabolised at 0.25 h, 5 µM [14]: 23%
Kp at 1 h [15]: 1
Activity [16]: inactive
Papp B→A [18]: 6 ×10⁻⁶ cm/s
Tmax [19]: 0.5 h
bioavailability [20]: 20%
Vd [21]: 1.8 L/kg
AUC(0-inf) [22]: 743 ng·h/mL
clearance [24]: 23 mL/min/kg
Tmax [26]: 0.5 h
Activity [27]: inactive
half-life [28]: 2.3 h
Activity [29]: inactive
Vd [30]: 2.3 L/kg
clearance [32]: 23 mL/min/kg
Activity [33]: inactive
pKa [34]: < 2
Structure (SMILES): CCCCn1ccc(N2CCC(c3ccccc3)CC2)c(Cl)c1=O [JNJ-40411813]
Activity (Rattus norvegicus [2]): inactive
Activity (Rattus norvegicus [5]): inactive
MEC (Rattus norvegicus [6]): 281 ng/mL
minimal effective dose (Rattus norvegicus [6]; Rattus norvegicus, Sprague-Dawley, po, 20 h, read-out: MED): 3 mg/kg
Activity (Rattus norvegicus [8]): Active
Activity (Rattus norvegicus [17]): inactive
Activity (Rattus norvegicus [23]): inactive
Activity (Rattus norvegicus [25]): inactive
fMEC (Rattus norvegicus [31]): 0.9 ng/mL
